Experiment [1] deals with 3T3-L1. As to the kind of experiment: Induction of 2-deoxy-D-[2,6-3H]glucose uptake in differentiated mouse 3T3L1 cells at 200 uM after 60 mins by liquid scintillation counting relative to basal uptake. Format: functional.
The test system of experiment [2] is 3T3-L1. As to the kind of experiment: Induction of 2-deoxy-D-[2,6-3H]glucose uptake in differentiated mouse 3T3L1 cells at 200 uM after 60 mins by liquid scintillation counting relative to insulin. Format: functional.

8 molecules from ChEMBL document CHEMBL3865811, “Synthesis and biological activities of d-chiro-inositol analogues with insulin-like actions” (2016) can be followed below.

As for `O[C@H]1[C@H](O)[C@H](O)[C@@H](O)[C@H](O)[C@H]1O`, the “fold change (FC)” value with 3T3-L1 [1] is listed as 1.4 - 2.8. Moreover, the Activity in the experiment on 3T3-L1 [2] turned out to be 64%.

Regarding `OC1[C@@H](O)[C@H](O)C[C@@H](O)[C@@H]1O` (stereo partly specified), in the experiment on 3T3-L1 [1], the “fold change (FC)” value turned out to be 0.5. Besides, the Activity in the experiment with 3T3-L1 [2] is -106%.

`CCCC(=O)O[C@H]1[C@H](O)[C@@H](O)[C@@H](O)[C@H](O)[C@@H]1O`: in the experiment on 3T3-L1 [1], the “fold change (FC)” value came to 1.3. Further, in the experiment on 3T3-L1 [2], the Activity came to 19%.

As for `CCCCO[C@H]1[C@@H](O)[C@H](O)[C@H](O)[C@@H](O)[C@@H]1O`, the “fold change (FC)” value in the experiment with 3T3-L1 [1] was 1.4. In addition, the Activity in the experiment with 3T3-L1 [2] is 22%.

Consider `CCCCO[C@H]1[C@H](O)[C@H](O)[C@@H](O)[C@H](O)[C@H]1O`, for which the “fold change (FC)” value in the experiment on 3T3-L1 [1] is listed as 1.4 - 1.5. Besides, the Activity with 3T3-L1 [2] is reported as 8%.

Consider `O[C@@H]1[C@@H](O)[C@@H](O)C[C@H](O)[C@H]1O`, for which the “fold change (FC)” value in the experiment with 3T3-L1 [1] is reported as 1.3. The Activity in the experiment on 3T3-L1 [2] amounted to 22%.

As to `O[C@H]1[C@H](O)[C@@H](O)[C@H](O)[C@H](O)[C@H]1O`, the “fold change (FC)” value in the experiment with 3T3-L1 [1] was 1.5 - 3. The Activity in the experiment with 3T3-L1 [2] came to 43%.

On to `O[C@H]1[C@H](O)[C@H](O)C[C@H](O)[C@H]1O`, for which, in the experiment on 3T3-L1 [1], the “fold change (FC)” value amounted to 1.3. The Activity in the experiment on 3T3-L1 [2] turned out to be 40%.
